Reference: patent US7208520B2, “Crystals of hydroxynorephedrine derivative” (Kissei Pharmaceutical Co., Ltd., priority 2001, dated 2007)

Assay: Stability test: storage at 60° C., residual percentage by HPLC and changes in appearance
Type: physicochemical
Conditions: for Residual percentage: determined by HPLC
Protocol: Stability test was carried out under a condition of storage at 60° C. for crystalline form A obtained in Example 2, crystalline form B obtained in Example 3 and the amorphous form of compound (II) obtained in Reference Example 1. The residual percentage of test substances was determined by HPLC, and the changes in appearance were observed.

[1] = storage at 60° C., 7 days, hydrochloride

Changes in appearance (storage at 60° C.)	Appearance (storage at 60° C., 7 days)	Residual percentage [1]	Appearance (storage period: Initial)	Residual percentage (storage period: Initial)	Residual percentage (storage at 60° C., 7 days)	Compound
no changes in appearance	white	99.9	white	100	–	CCOC(=O)COc1cc(C)c(CCN[C@@H](C)[C@H](O)c2ccc(O)cc2)cc1C.Cl [Example 3, Crystalline form B of ethyl (−)-2-[4-[2-[[(1S,2R)-2-hydroxy-2-(4-hydroxyphenyl)-1-methyethyl]amino]ethyl]-2,5-dimethylphenoxy]acetate hydrochloride]
no changes in appearance	white	100	white	100	–	CCOC(=O)COc1cc(C)c(CCN[C@@H](C)[C@H](O)c2ccc(O)cc2)cc1C.Cl [Example 2, Crystalline form A of ethyl (−)-2-[4-[2-[[(1S,2R)-2-hydroxy-2-(4-hydroxyphenyl)-1-methyethyl]amino]ethyl]-2,5-dimethylphenoxy]acetate hydrochloride]
–	tannish	–	Color-	100	40.0	CCOC(=O)COc1cc(C)c(CCN[C@@H](C)[C@H](O)c2ccc(O)cc2)cc1C [compound 1, Ethyl (−)-2-[4-[2-[[(1S,2R)-2-hydroxy-2-(4-hydroxyphenyl)-1-methyethyl]amino]ethyl]-2,5-dimethylphenoxy]acetate, reference compound]
